Values quoted from earlier work, collected in patent US20080014152A1, “INTRANASAL DELIVERY OF C[…] THE […] AND INTO THE BRAIN” (priority 2006, published 2008).

Key:
[1] = Rami 2003; after transient global ischemia
[2] = system: hippocampal cells; details: Zhu 2001
[3] = molecular target: T1, β2 adrenergic receptors (Rattus norvegicus, UniProt P10608); details: Colangelo 1998; stimulation of β2 adrenergic receptors
T1 construct: host or cells: rat cerebral cortex (in vivo)

[4] = system: U937 cell; details: Izeboud 1999; U937 cells stimulated with LPS
[5] = system: bFGF mRNA
[6] = system: TGF-β
[7] = system: NGF mRNA; details: Follesa 1993; 10 mg/kg intraperitoneal, within 5 hours of administration
[8] = Culmsee 2004
[9] = system: NGF protein; details: Zhu 1998; intraperitoneal
[10] = Culmsee 1999
[11] = system: hippocampal cultures; details: Semkova 1996; in vitro exposure of hippocampal cultures
[12] = McIntyre 2005; infusions into the amygdala
[13] = Sleeper 2002; chronic systemic administration
[14] = system: astrocytes; details: Abdulla 2005; astrocytes treated with LPS

T1 sequence (P10608 whole entry): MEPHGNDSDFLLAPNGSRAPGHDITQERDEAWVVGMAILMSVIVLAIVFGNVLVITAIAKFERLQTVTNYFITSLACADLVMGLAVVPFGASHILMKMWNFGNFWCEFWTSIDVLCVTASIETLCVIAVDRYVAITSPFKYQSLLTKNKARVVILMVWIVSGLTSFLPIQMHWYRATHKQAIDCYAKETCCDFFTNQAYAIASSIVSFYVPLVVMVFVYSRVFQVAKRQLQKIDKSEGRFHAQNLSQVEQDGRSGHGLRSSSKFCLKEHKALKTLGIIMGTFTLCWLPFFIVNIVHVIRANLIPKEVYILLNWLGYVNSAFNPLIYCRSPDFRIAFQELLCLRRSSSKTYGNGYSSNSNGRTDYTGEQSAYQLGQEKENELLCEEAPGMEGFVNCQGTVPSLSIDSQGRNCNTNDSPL

SMILES: CC(C)(C)NCC(O)c1cc(Cl)c(N)c(Cl)c1 (stereo not drawn) [clenbuterol]
- apoptosis in the rat hippocampus [1]: attenuates apoptosis
- neuroprotection of hippocampal cells after ischemia [2]: provided neuroprotection
- NGF biosynthesis in the rat cerebral cortex [3]: increases NGF biosynthesis
- IL-6 production [4]: decreasing
- IL-10 production [4]: increase IL-10 production
- TNF-α production [4]: decreasing
- increase in bFGF mRNA in the cerebral cortex, hippocampus and cerebellum ([5]; Follesa 1993, 10 mg/kg intraperitoneal, within 5 hours of administration): 2-3 fold
- induction of bFGF production in neurons ([5]; in vivo): 2-3 ×
- TGF-β immunoreactivity ([6]; Zhu 2001, 0.5 mg/kg, as early as 3 hours after administration, elevated up to 2 days): increase TGF-β immunoreactivity
- induction of TGF-β production in neurons ([6]; in vivo): 2-3 ×
- increase in NGF mRNA in the cerebral cortex [7]: 2-3 fold
- neuroprotective capacity in experimental models of stroke [8]: neuroprotective capacity
- elevation of NGF protein levels in the rat hippocampus [9]: 33%
- cortical infarct volume ([10]; 0.01-0.5 mg/kg, rats, measured 7 days after permanent occlusion of the middle cerebral artery): reduced cortical infarct volume
- blood pressure ([10]; dosages greater than 1 mg/kg): decrease in blood pressure
- cerebroprotective effect ([10]; dosages greater than 1 mg/kg): no cerebroprotective effect
- plasma glucose level ([10]; dosages greater than 1 mg/kg): increase in plasma glucose level
- NGF content in the culture medium [11]: enhanced significantly
- memory [12]: enhance memory
- side effects, cardiac function [13]: negative alteration of cardiac function
- protection from inflammation in astrocytes [14]: provides protection from inflammation
